Data reported in patent publication US8586505B2 (SDS Biotech K. K., priority 2009, dated 2013).

Key:
Assay type in all cases: in vivo
Phytophthora infestans = assay: whole plant or invertebrate; conditions: in Solanum lycopersicum, 96 h, read-out: Determination of control effect (preventive value)
[1] = test system: Pseudoperonospora cubensis; assay: Test of examining control effect on Pseudoperonospora cubensis (potted cucumber plants); conditions: 96 h, 10% wettable powder adjusted to 125 ppm, 15 ml/pot sprayed on potted cucumber plants one day before spray inoculation, assessed after 1 day wet chamber and 3 days greenhouse, read-out: Determination of control effect (preventive value) on Pseudoperonospora cubensis
How it was run: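 Cucumber plants (Sagamihanjiro, 2.5-leaf stage) sprayed with 125 ppm compound solution from 10% wettable powder, 15 ml/pot. One day later, spray-inoculated with P. cubensis conidia (1.0×10^4 cells/ml), kept 1 day at 21° C wet, then 3 days in greenhouse. Preventive value derived from lesion area relative to untreated plants.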

Sphaerotheca fuliginea = assay: Test of examining control effect on Sphaerotheca fuliginea (potted cucumber plants); conditions: Podosphaera fuliginea, 336 h; 10% wettable powder adjusted to 125 ppm, 15 ml/pot sprayed on potted cucumber plants one day before spray inoculation; assessed after 14 days in greenhouse; read-out: Determination of control effect (preventive value) on Sphaerotheca fuliginea
How it was run: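 Cucumber plants (Sagamihanjiro, 2nd leaf stage) sprayed with 125 ppm compound (from 10% wettable powder), inoculated one day later with S. fuliginea conidia (1.0×10^5 cells/ml); lesion area scored after 14 days in greenhouse. Preventive value vs untreated; ≥60% high, <60% low control.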

Row | SMILES | pest or weed control at 125 ppm (Phytophthora infestans) [%] | pest or weed control at 125 µg/mL [1] [%] | pest or weed control at 125 µg/mL (Sphaerotheca fuliginea) [%]
1 | CSc1ncnc(NCCC#Cc2ccccc2C(F)(F)F)c1[N+](=O)[O-] [compound 371] | 0 to 60 | 0 to 60 | 0 to 60
2 | COCc1ccccc1C#CCCNc1ncnc(C)c1Cl [compound 362] | 60 to 100 | 60 to 100 | 60 to 100
3 | CC(CC#Cc1c(Cl)cccc1Cl)Nc1ncnc2sccc12 (stereo not drawn) [compound 251] | 0 to 60 | 60 to 100 | 60 to 100
4 | CCOCc1ccccc1C#CCCNc1ncnc2ccccc12 [compound 153] | 60 to 100 | 60 to 100 | 0 to 60
5 | COCc1cc(Cl)ccc1C#CCCNc1ncnc2ccccc12 [compound 140] | 60 to 100 | 60 to 100 | 60 to 100
6 | Fc1ccc(C(F)(F)F)c(C#CCCNc2ncnc3ccccc23)c1 [compound 168] | 60 to 100 | 60 to 100 | 60 to 100
7 | CC(CC#Cc1ccccc1C(F)(F)F)Nc1ncnc2c(F)cccc12 (stereo not drawn) [compound 343] | 60 to 100 | 60 to 100 | 60 to 100
8 | CC(F)c1ncnc(NCCC#Cc2ccccc2)c1I (stereo not drawn) [compound 374] | 0 to 60 | 60 to 100 | 60 to 100
9 | COc1ccccc1C#CCCNc1ncnc2ccccc12 [compound 115] | 60 to 100 | 60 to 100 | 60 to 100
10 | O=C(O)c1ccc(C#CCCNc2ncnc3ccccc23)cc1 [compound 127] | 60 to 100 | 60 to 100 | 60 to 100
11 | CC(CC#Cc1ccc(Cl)cc1C(F)(F)F)Nc1ncnc2cc(F)ccc12 (stereo not drawn) [compound 344] | 0 to 60 | 60 to 100 | 60 to 100
12 | C(#Cc1ccccc1-c1ccccc1)CCNc1ncnc2ccccc12 [compound 114] | 0 to 60 | 60 to 100 | 60 to 100
13 | CC(C)C(CC#Cc1ccccc1)Nc1ncnc2ccccc12 (stereo not drawn) [compound 298] | 60 to 100 | 60 to 100 | 60 to 100
14 | COc1cccc2c(NC(C)CC#Cc3ccc(Cl)cc3C(F)(F)F)ncnc12 (stereo not drawn) [compound 352] | 0 to 60 | 60 to 100 | 60 to 100
15 | CC[Si](C#CCCNc1ncnc2sccc12)(CC)CC [compound 3] | 0 to 60 | 60 to 100 | 60 to 100
16 | C(#Cc1ccnc2ccccc12)CCNc1ncnc2ccccc12 [compound 189] | 0 to 60 | 60 to 100 | 60 to 100
17 | CC(CC#Cc1ccccc1)Nc1ncnc2sccc12 (stereo not drawn) [compound 229] | 0 to 60 | 60 to 100 | 60 to 100
18 | COCc1ccccc1C#CCCNc1ncnc2ccc(OC)cc12 [compound 329] | 60 to 100 | 60 to 100 | 60 to 100
19 | CS(=O)(=O)c1ncnc(NCCC#Cc2ccccc2C(F)(F)F)c1[N+](=O)[O-] [compound 369] | 0 to 60 | 0 to 60 | 0 to 60
20 | COCc1ccccc1C#CCCNc1ncnc2cc(C(F)(F)F)ccc12 [compound 324] | 0 to 60 | 60 to 100 | 0 to 60

Row | SMILES | pest or weed control at 125 ppm (Phytophthora infestans) [%] | pest or weed control at 125 µg/mL [1] [%] | pest or weed control at 125 µg/mL (Sphaerotheca fuliginea) [%]
21 | COCc1ccccc1C#CCCNc1ncnc(Cl)c1Br [compound 366] | 60 to 100 | 60 to 100 | 60 to 100
22 | CC(CC#Cc1ccc(Cl)cc1C(F)(F)F)Nc1ncnc(C(C)Cl)c1Cl (stereo not drawn) [compound 383] | 0 to 60 | 60 to 100 | 60 to 100
23 | COCc1ccccc1C#CCCNc1ncnc2ccc(SC)cc12 [compound 332] | 0 to 60 | 60 to 100 | 0 to 60
24 | COc1ccc2cc(C#CCCNc3ncnc4ccccc34)ccc2c1 [compound 184] | 60 to 100 | 60 to 100 | 60 to 100
25 | Cc1ccc(C#CCCNc2ncnc3ccccc23)s1 [compound 206] | 60 to 100 | 60 to 100 | 0 to 60
26 | C#CCC(Nc1ncnc2ccccc12)c1ccccc1 (stereo not drawn) [compound 300, 4-[(1-Phenyl-3-butynyl)amino]quinazoline] | 0 to 60 | 60 to 100 | 60 to 100
27 | COCc1ccccc1C#CCCNc1ncnc2ccc(Cl)cc12 [compound 313] | 0 to 60 | 60 to 100 | 60 to 100
28 | C#CCCNc1ncnc2sccc12 [compound 1, 4-(3-butynylamino)thieno[2,3-d]pyrimidine] | 0 to 60 | 0 to 60 | 0 to 60
29 | FC(F)(F)c1ccccc1C#CCCNc1ncnc2ccccc12 [compound 101] | 60 to 100 | 60 to 100 | 60 to 100
30 | CS(=O)(=O)Cc1ccccc1C#CCCNc1ncnc2ccccc12 [compound 162] | 0 to 60 | 60 to 100 | 0 to 60
31 | C[Si](C)(C)C#CCCNc1ncnc2sccc12 [Compound No. 2, 4-(4-Trimethylsilanyl-3-butynylamino)thieno[2,3-d]pyrimidine] | 60 to 100 | 60 to 100 | 60 to 100
32 | C#CCOCc1nc(C#CCCNc2ncnc3sccc23)cs1 [compound 74] | 60 to 100 | 60 to 100 | 60 to 100
33 | COc1cc(OC)nc(C#CCCNc2ncnc3sccc23)n1 [compound 60] | 60 to 100 | 60 to 100 | 0 to 60
34 | Clc1cc(C#CCCNc2ncnc3ccccc23)ccn1 [compound 196] | 0 to 60 | 60 to 100 | 60 to 100
35 | C=Cc1ccc(C#CCCNc2ncnc3ccccc23)cc1 [compound 110] | 60 to 100 | 60 to 100 | 60 to 100
36 | COCc1nc(C#CCCNc2ncnc3sccc23)cs1 [compound 72] | 60 to 100 | 60 to 100 | 60 to 100
37 | CC(CC#Cc1ccc(C(F)(F)F)cc1C(F)(F)F)Nc1ncnc2ccccc12 (stereo not drawn) [compound 280] | 0 to 60 | 60 to 100 | 0 to 60
38 | CN(c1ccc(C#CCCNc2ncnc3ccccc23)cc1)S(C)(=O)=O [compound 124] | 0 to 60 | 60 to 100 | 0 to 60
39 | CC(CC#Cc1ccccc1C(F)(F)F)Nc1ncnc2ccccc12 (stereo not drawn) [compound 274] | 60 to 100 | 60 to 100 | 60 to 100
40 | COCc1ccccc1C#CCCNc1ncnc2ccc(-c3cccnc3)cc12 [compound 337] | 0 to 60 | 60 to 100 | 0 to 60
